Data as given in the CheMixHub viscosity set.

Assay: xn = mol fraction of the nth substance listed

NCCCN + OCCCO
viscosity [mPa·s], 100 kPa
Details | 293.15 K | 298.15 K | 303.15 K | 308.15 K | 313.15 K | 318.15 K
x2 = 0.0488 | 2.48 | 2.207 | 1.884 | 1.707 | 1.513 | 1.454
x2 = 0.0977 | 3.266 | 2.887 | 2.418 | 2.17 | 1.888 | 1.837
x2 = 0.1467 | 4.261 | 3.71 | 3.095 | 2.765 | 2.395 | 2.296
x2 = 0.1958 | 5.561 | 5.116 | 3.988 | 3.529 | 3.071 | 2.924
x2 = 0.2451 | 7.784 | 6.598 | 5.35 | 4.639 | 3.944 | 3.722
x2 = 0.2945 | 10.96 | 9.104 | 7.198 | 6.175 | 5.145 | –
x2 = 0.3441 | 15.12 | 12.35 | 9.637 | 8.272 | 6.698 | –
x2 = 0.3937 | 20.61 | 16.58 | 12.78 | 10.64 | 8.698 | –
x2 = 0.4435 | 27.49 | 22.54 | 17.07 | 14.02 | 11.29 | –
x2 = 0.4934 | 37.54 | 29.33 | 21.87 | 17.83 | 14.16 | –
x2 = 0.5435 | 48.19 | 37.19 | 27.63 | 22.21 | 17.49 | –
x2 = 0.5937 | 59.37 | 45.53 | 33.45 | 26.75 | 20.06 | –
x2 = 0.644 | 68.67 | 52.73 | 38.69 | 30.9 | 24.13 | –
x2 = 0.6945 | 75.47 | 57.65 | 42.48 | 34 | 26.62 | –
x2 = 0.745 | 77.45 | 60.06 | 44.62 | 35.77 | 28.05 | –
x2 = 0.7958 | 76.36 | 59.6 | 44.73 | 36.13 | 28.42 | –
x2 = 0.8466 | 71.94 | 56.84 | 42.88 | 34.89 | 27.77 | –
x2 = 0.8976 | 66.38 | 52.57 | 40 | 32.8 | 26.28 | –
x2 = 0.9487 | 59.47 | 47.41 | 36.34 | 30.05 | 24.3 | –

NCCCN + OCCOCCOCCO
viscosity [mPa·s], 100 kPa
Details | 293.15 K | 298.15 K | 303.15 K | 308.15 K | 313.15 K | 318.15 K
x2 = 0.0253 | 2.31 | 2.01 | – | 1.64 | 1.46 | 1.23
x2 = 0.052 | 2.82 | 2.42 | 2.1 | 1.9 | 1.74 | 1.45
x2 = 0.0801 | 3.56 | 3.07 | 2.62 | 2.28 | 2.06 | 1.69
x2 = 0.1098 | 4.41 | 3.74 | 3.15 | 2.72 | 2.47 | 2.02
x2 = 0.1412 | 5.52 | 4.68 | 3.91 | 3.33 | 3 | 2.43
x2 = 0.1746 | 7.09 | 5.97 | 4.92 | 4.16 | 3.72 | 2.99
x2 = 0.21 | 8.97 | 7.46 | 6.09 | 5.1 | 4.54 | 3.69
x2 = 0.2476 | 11.9 | 9.77 | 7.87 | 6.52 | 5.7 | 4.51
x2 = 0.2877 | 15.8 | 12.8 | 10.1 | 8.27 | 7.16 | 5.6
x2 = 0.3305 | 21.6 | 17.1 | 13.3 | 10.7 | 9.13 | 7.02
x2 = 0.3762 | 29.3 | 22.8 | 17.5 | 13.8 | 11.6 | 8.8
x2 = 0.4254 | 38.8 | 29.7 | 22.5 | 17.5 | 14.6 | 11
x2 = 0.4782 | 50.2 | 37.8 | 28.3 | 21.7 | 17.9 | 13.3
x2 = 0.5352 | 59.8 | 44.5 | 33.2 | 25.5 | 20.8 | 15.2
x2 = 0.5969 | 70.2 | 52.2 | 38.6 | 29.2 | 23.7 | 17.3
x2 = 0.6638 | 72.7 | 54.6 | 40.6 | 30.9 | 25.2 | 18.5
x2 = 0.7366 | 72.1 | 54.3 | 40.7 | 31.2 | 25.7 | 19.1
x2 = 0.8162 | 66.3 | 50.6 | 38.4 | 29.7 | 24.7 | 18.6
x2 = 0.9036 | 57.9 | 44.7 | 34.3 | 26.8 | 22.5 | 17.2

NCCCN + OCCOCCOCCOCCO
viscosity [mPa·s], 101.33 kPa
Details | 293.15 K | 298.15 K | 303.15 K | 308.15 K | 313.15 K | 318.15 K
x2 = 0.0197 | 2.27 | 1.95 | 1.76 | 1.6 | 1.31 | 1.26
x2 = 0.0407 | 2.72 | 2.32 | 2.08 | 1.86 | – | 1.48
x2 = 0.0631 | 3.37 | 2.84 | 2.52 | 2.25 | 1.97 | 1.75
x2 = 0.0871 | 4.07 | 3.41 | 2.99 | 2.64 | 2.34 | 2.08
x2 = 0.1129 | 5.06 | 4.2 | 3.64 | 3.21 | 2.83 | 2.48
x2 = 0.1406 | 6.38 | 5.25 | 4.48 | 3.92 | 3.42 | 3
x2 = 0.1705 | 8.2 | 6.64 | 5.62 | 4.86 | 4.2 | 3.62
x2 = 0.2028 | 10.6 | 8.44 | 7.08 | 6.05 | 5.2 | 4.42
x2 = 0.238 | 13.9 | 10.9 | 9.08 | 7.62 | 6.48 | 5.45
x2 = 0.2762 | 18.5 | 14.2 | 11.6 | 9.67 | 8.11 | 6.84
x2 = 0.3181 | 24.6 | 18.7 | 15.1 | 12.4 | 10.3 | 8.42
x2 = 0.3641 | 33.1 | 24.9 | 19.6 | 15.8 | 12.8 | 10.5
x2 = 0.4148 | 43.8 | 32.6 | 25.2 | 20.1 | 16.1 | 13
x2 = 0.4711 | 57.6 | 41.4 | 31.7 | 24.9 | 19.7 | 15.8
x2 = 0.5338 | 71.2 | 50.7 | 38.4 | 30 | 23.5 | 18.7
x2 = 0.6042 | 81.6 | 57.9 | 43.7 | 34 | 26.8 | 21
x2 = 0.6838 | 85.1 | 60.9 | 46 | 36 | 28.4 | 22.4
x2 = 0.7745 | 81.2 | 59.1 | 45 | 35.5 | 28.3 | 22.5
x2 = 0.8788 | 71.9 | 53.1 | 41 | 32.7 | 26.4 | 21.1
